Consider 1 compound from patent US4869900A, “Pharamaceutical composition containing ubidecarenone” (Zambon S.p.A., priority 1985, dated 1989).

Series [1] is described as follows: Stability of CoQ10 in the compositions (one year at 30° C.). The series is classed as physicochemical. As to conditions: after one year at 30° C., in the compositions or pharmaceutical preparations according to the invention.
Series [2] concerns cardiac affections such as cardiac deficiency, ischemic disease. The settings on record: treatment of several cardiac affections such as cardiac deficiency; cited from earlier work.
For series [3] the following is noted: takes place through the lymphatic system; cited from earlier work.

Consider `COC1=C(OC)C(=O)C(C/C=C(\C)CC/C=C(\C)CC/C=C(\C)CC/C=C(\C)CC/C=C(\C)CC/C=C(\C)CC/C=C(\C)CC/C=C(\C)CC/C=C(\C)CCC=C(C)C)=C(C)C1=O` [CoQ10, Coenzyme Q10], for which the “degradation of CoQ10” value in series [1] is recorded as “no degradation”. Moreover, the clinical effectiveness result in series [2] was “clinically effective”. In series [3], the absorption result is recorded as “scarce”.
